{"source": "patent US4233296A", "about": "“11β-Substituted-Δ^4,9 -estradienes” (Roussel Uclaf, priority 1977, dated 1980)", "key": {"[1]": {"biological_target": "T1, specific uterine reception of progesterone (progesterone receptor, uterus cytosol) (Oryctolagus cuniculus, UniProt P06186)", "T1 construct": "the uterus was removed and homogenized in a buffered solution; from tissue; host or cells: uterus cytosol (105,000 g supernatant) of estradiol-primed immature rabbits", "T1 sequence (P06186 1-930)": "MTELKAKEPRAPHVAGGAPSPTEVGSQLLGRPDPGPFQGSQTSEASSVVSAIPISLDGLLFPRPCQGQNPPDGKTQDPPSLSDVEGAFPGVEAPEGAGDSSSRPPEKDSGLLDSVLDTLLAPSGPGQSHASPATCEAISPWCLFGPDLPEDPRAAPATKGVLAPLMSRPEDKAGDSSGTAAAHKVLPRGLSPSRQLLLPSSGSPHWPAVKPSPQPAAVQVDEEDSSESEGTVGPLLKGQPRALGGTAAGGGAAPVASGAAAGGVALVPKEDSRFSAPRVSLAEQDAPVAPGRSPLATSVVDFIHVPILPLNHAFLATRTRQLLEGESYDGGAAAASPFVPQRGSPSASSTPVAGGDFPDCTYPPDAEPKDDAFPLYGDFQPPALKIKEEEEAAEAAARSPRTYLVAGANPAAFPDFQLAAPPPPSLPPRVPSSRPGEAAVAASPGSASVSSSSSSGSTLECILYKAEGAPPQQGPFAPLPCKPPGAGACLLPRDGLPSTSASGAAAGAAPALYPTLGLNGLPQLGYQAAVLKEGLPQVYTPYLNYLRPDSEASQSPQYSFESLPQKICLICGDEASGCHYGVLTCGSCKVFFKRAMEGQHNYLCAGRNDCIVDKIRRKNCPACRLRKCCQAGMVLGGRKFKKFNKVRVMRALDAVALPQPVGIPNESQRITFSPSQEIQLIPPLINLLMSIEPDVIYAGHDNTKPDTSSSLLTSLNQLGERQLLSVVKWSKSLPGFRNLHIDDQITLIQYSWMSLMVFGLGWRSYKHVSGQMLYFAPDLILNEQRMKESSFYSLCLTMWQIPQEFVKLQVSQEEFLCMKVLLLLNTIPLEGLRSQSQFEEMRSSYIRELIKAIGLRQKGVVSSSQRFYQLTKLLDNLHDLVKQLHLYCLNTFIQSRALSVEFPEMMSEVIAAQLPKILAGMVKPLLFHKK", "assay": "Progestomimetic activity: hormonal receptor method, displacement of tritiated 17,21-dimethyl-19-nor-Δ4,9-pregnadiene-3,20-dione in uterus cytosol", "type": "binding, rabbit", "settings": "for affinity for uterine progesterone receptor compared with progesterone (in words): conclusion from Table VI; for ARL (relative affinity of the test product): progesterone = 100, from CP and CX (concentrations inhibiting by 50% the fixation of tritiated product R), immature rabbit uterus cytosol, 0° C., 2 hours", "method": "The progestomimetic activity was determined for 11β-vinyl-17α-methyl-17β-acetyl-Δ^4,9 -estradiene-3-one [product A], 11β-vinyl-17α-acetoxy-17β-acetyl-Δ^4,9 -estradiene-3-one [product B] and 11β-vinyl-17α-ethynyl-Δ^4,9 -estradiene-17α-ol-3-one [product C] was determined by the hormonal receptor method of Raynaud et al [J. Ster. Biochem., Vol. 6 (1975), p-615-622 and Physiology and Genetics of Reproduction, part A (1975), p. 143-160]. Immature rabbits received subcutaneously 25γ of estradiol and 5 days later, the animals were sacrificed and the uterus was removed and homogenized in a buffered solution of 10 mm of tromethamine, 0.25 M of saccharose and a pH of 7.4 with hydrochloric acid. The homogenate was centrifuged at 105,000 g per hour and the surnageant or cytosol was adjusted to a dilution of 1/50 (weight/volume). […] The radioactivity of the tritiated product R was determined after 2 hours by the technique of adsorption on carbon-dextran (1.25-0.625%). The curves representing the percentage of tritiated product R as a function of the log of the concentration, of cold product R, of progesterone or the test products and the I50 straight line parallel to the axis of the abcisses and ordinates were plotted. [formula] B/T max. is the percentage of tied tritiated product R when the product is not added and B/T min. is the percentage of tied tritiated product R when the maximum amount of cold product R is added. The intersections of these I50 straight lines and the curves permit the determination of the values: CP - concentration of cold progesterone which inhibits by 50% the fixation of the tritiated product R and CX-concentration of test product which inhibits by 50% the fixation of tritiated product R. The relative affinity of the test product (ARL) was determined by the formula [formula] and the results are reported in Table VI."}, "[2]": {"biological_target": "T2, prostatic androgenic reception of testosterone (androgen receptor, prostate cytosol) (Rattus norvegicus, UniProt P15207)", "T2 construct": "The prostate was recovered from male rats castrated 24 hours earlier and was homogenized; from tissue; host or cells: prostate cytosol (105,000 g supernatant) of male rats castrated 24 hours earlier", "T2 sequence (P15207 1-902)": "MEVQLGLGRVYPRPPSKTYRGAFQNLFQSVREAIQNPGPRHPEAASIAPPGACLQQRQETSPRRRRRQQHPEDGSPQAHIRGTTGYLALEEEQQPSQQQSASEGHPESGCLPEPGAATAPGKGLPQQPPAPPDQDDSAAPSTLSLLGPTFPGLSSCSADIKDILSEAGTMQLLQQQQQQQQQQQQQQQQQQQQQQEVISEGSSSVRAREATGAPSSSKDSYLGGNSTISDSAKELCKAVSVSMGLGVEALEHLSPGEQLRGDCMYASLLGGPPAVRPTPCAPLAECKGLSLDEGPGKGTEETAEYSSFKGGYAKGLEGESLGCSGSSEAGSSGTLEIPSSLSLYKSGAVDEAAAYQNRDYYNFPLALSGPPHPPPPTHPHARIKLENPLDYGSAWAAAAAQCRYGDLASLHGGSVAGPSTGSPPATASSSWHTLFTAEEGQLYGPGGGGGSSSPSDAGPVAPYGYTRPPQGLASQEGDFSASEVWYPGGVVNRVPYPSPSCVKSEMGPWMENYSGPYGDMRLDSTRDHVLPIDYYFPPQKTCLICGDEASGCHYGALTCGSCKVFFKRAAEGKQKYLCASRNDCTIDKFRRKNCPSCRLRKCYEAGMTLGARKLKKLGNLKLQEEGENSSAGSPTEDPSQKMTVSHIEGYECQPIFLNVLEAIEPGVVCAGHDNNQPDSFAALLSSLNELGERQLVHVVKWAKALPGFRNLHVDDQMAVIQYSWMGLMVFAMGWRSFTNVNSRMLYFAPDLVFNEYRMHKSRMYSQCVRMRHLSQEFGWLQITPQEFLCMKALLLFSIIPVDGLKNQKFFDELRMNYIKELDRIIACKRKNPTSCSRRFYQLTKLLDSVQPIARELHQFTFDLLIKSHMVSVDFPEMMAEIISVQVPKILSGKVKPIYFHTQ", "assay": "Androgenic activity: hormonal receptor method, displacement of tritiated 17α-methyl-Δ4,9,11-estratriene-17β-ol-3-one in prostate cytosol", "type": "binding", "method": "This test also used the method of Raynaud et al discussed above. The prostate was recovered from male rats castrated 24 hours earlier and was homogenized in a buffer containing 10 mm of tromethamine and 0.25 M of saccharose and sufficient hydrochloric acid for a pH of 7.4. The homogenate was centrifuged at 105,000 g for one hour and the surnageant liquid or cytosol was adjusted to a dilution of 1/5 (weight/volume).\nThe radioactivity of the tied tritiated product was determined after 2 hours by absorption technique on carbon-dextran (1.25%-0.625%). […] [formula] were ploted. B/T max. is the percentage of tied tritiated product R when the product is not added and B/T min. is the percentage of tied tritiated product R when the maximum amount of cold product R is added."}}}
{"molecule": "C=C[C@H]1C[C@@]2(C)[C@@H](CC[C@]2(OC(C)=O)C(C)=O)[C@@H]2CCC3=CC(=O)CCC3=C21", "note": "[Product B, 11β-vinyl-17α-acetoxy-17β-acetyl-Δ^4,9-estradiene-3-one]", "values": [{"measurement": "affinity for uterine progesterone receptor compared with progesterone (in words)", "setting": "[1]", "value": "greater affinity for specific uterine reception of progesterone than progesterone"}, {"measurement": "ARL (relative affinity of the test product)", "setting": "[1]", "value": 120}]}
{"molecule": "C=C[C@H]1C[C@@]2(C)[C@@H](CC[C@]2(C)C(C)=O)[C@@H]2CCC3=CC(=O)CCC3=C21", "note": "[Product A, 11β-vinyl-17α-methyl-17β-acetyl-Δ^4,9-estradiene-3-one]", "values": [{"measurement": "affinity for uterine progesterone receptor compared with progesterone (in words)", "setting": "[1]", "value": "greater affinity for specific uterine reception of progesterone than progesterone"}, {"measurement": "ARL (relative affinity of the test product)", "setting": "[1]", "value": 160}]}
{"molecule": "C=C(C)[C@H]1C[C@@]2(C)[C@@H](CC[C@]2(C)O)[C@@H]2CCC3=CC(=O)CCC3=C12", "note": "[Product D, 11β-isopropenyl-17α-methyl-Δ^4,9-estradiene-17β-ol-3-one]", "values": [{"measurement": "affinity for prostatic androgen receptor compared with testosterone (in words)", "setting": "[2]; conclusion from Table VII", "value": "affinity on the order of that of testosterone"}, {"measurement": "ARL (relative affinity of the test product)", "setting": "[2]; testosterone = 100, from CT and CX (concentrations inhibiting by 50% the fixation of tritiated product R), castrated rat prostate cytosol, 0° C., 2 hours", "value": 80}]}
{"molecule": "C#C[C@]1(O)CC[C@H]2[C@@H]3CCC4=CC(=O)CCC4=C3[C@@H](C=C)C[C@@]21C", "note": "[Product C, 11β-vinyl-17α-ethynyl-Δ^4,9-estradiene-17β-ol-3-one]", "values": [{"measurement": "affinity for uterine progesterone receptor compared with progesterone (in words)", "setting": "[1]", "value": "greater affinity for specific uterine reception of progesterone than progesterone"}, {"measurement": "ARL (relative affinity of the test product)", "setting": "[1]", "value": 150}]}
